Assay [1] addresses procaine-binding aptamer. The assay can be described thus: Square wave voltammetry calibration of procaine-binding E-AB sensors. The note with it: 100 Hz, amplitude 50 mV, step 1 mV, read-out: KD (dissociation constant) by square-wave voltammetry. How it is done:
FIG. 12 is a plot showing a calibration curve for procaine-binding E-AB sensors obtained by square wave voltammetry. The Hill's coefficient and dissociation constant obtained were 0.97±0.05 and 1.9±0.2 mM, respectively. Each point represents the average of 5·measurements at a frequency of 100 Hz, amplitude of 50 mV, and step potential of 1 mV.
These sequences were purchased modified on the 5′end with hexanethiol and on the 3′end with MB, and double HPLC purified. To prepare aptamer solutions for electrode modification, 1 μL of 100 μM of the modified sequences was incubated with 2 μL of 5 mM TCEP solution in water for 1 hour to reduce the disulfide bonds. Then, we diluted the aptamer solutions in 1 mM 6-mercaptohexanol aqueous solution to a final aptamer concentration of 500 nM.
Electrochemical measurements. Gold working (PN 002314, d=1.6 mm) and coiled platinum wire counter electrodes (PN 012961) were purchased from ALS Inc. (Japan). Ag/AgCl (1M KCl) reference electrodes (PN CHI111) were purchased from CH Instruments (USA). […] Cyclic voltammograms were recorded at different scan rates in the potential window from −0.5 V to +0.1 V vs Ag/AgCl (1M KCl). Square-wave voltammograms were recorded from 0 V to −0.5 V vs Ag/AgCl (1M KCl) with an amplitude of 50 mV, a step size of 1 mV, and at 300 Hz. […]
(§1) Electrode modification. […] After rinsing with water, electrodes were ready for use. […]

The target of assay [2] is procaine-binding aptamer. Kind of assay: Cyclic voltammetry ΔEP interrogation of procaine-detecting E-AB sensors in undiluted serum. On the procedure:
(§2) ΔEP-based interrogation of E-AB sensors supports molecular measurements in complex media such as undiluted serum. Moreover, the approach can be used to interrogate E-AB sensors detecting different molecular targets. […] Furthermore, the relative change in ΔEP at 10 mM tobramycin was 30% less than the gain seen in phosphate-buffered saline. Both of these effects were previously reported for serum tobramycin E-AB measurements performed by chronoamperometry, confirming that ΔEP is not more prone to fouling than, for example, chronoamperometric current decay lifetimes. […] Last, procaine-detecting E-AB sensors presented the largest change in ΔEP, corresponding to a relative decrease of ˜80% at saturating procaine concentrations (FIG. 11C). Based on our calibration curve, the procaine-binding aptamer has a KD of ˜500 μM, slightly better than the affinity obtained by, for example, square-wave voltammetry (KD˜2 mM, FIG. 12). […]
(§3) Electrochemical measurements. […] Cyclic voltammograms were recorded at different scan rates in the potential window from −0.5 V to +0.1 V vs Ag/AgCl (1M KCl). Square-wave voltammograms were recorded from 0 V to −0.5 V vs Ag/AgCl (1M KCl) with an amplitude of 50 mV, a step size of 1 mV, and at 300 Hz. […]
as §1

Assay [3] concerns tobramycin-binding aptamer. Kind of assay: Cyclic voltammetry (ΔEP / IP) interrogation of tobramycin-detecting E-AB sensors. The source says:
The magnitude of ΔEP in cyclic voltammetry can be used to interrogate changes in the apparent electron transfer kinetics of E-AB sensors. ΔEP is affected by a mass transfer (diffusional) component related to the conformation switching behavior of aptamers; thus, measured changes in ΔEP reflect target-binding induced changes in aptamer conformation. We first illustrate this effect employing tobramycin-detecting E-AB sensors (FIG. 5), which have been extensively validated in the literature and represent a well-understood model system. In these E-AB sensors, interrogation by cyclic voltammetry in the absence of target and at voltage scanning rates of ˜1-10 V·s^−1 results in voltammograms with a ΔEP ˜100 mV (FIG. 5A). However, the addition of a saturating concentration of tobramycin (10 mM) causes a significant increase in apparent electron transfer kinetics with a concomitant decrease in ΔEP to ˜30 mV (FIG. 5A, B). Similar measurements at varying tobramycin concentrations can be translated into dose-response curves (FIG. 5C). The dissociation constant estimated by extrapolating the mid-point of these dose-response curves to the x-axis, KD˜80 μM, is similar to previously reported KD measurements based on chronoamperometric and differential pulse measurements.
As with all E-AB interrogation methods, there is a tradeoff between the maximum signal gain observed by ΔEP and the apparent dissociation constant of the sensors. To illustrate this, we measured dose-response curves as shown in FIG. 5C at scanning rates ranging from 0.5 to 100 V·s^−1 (FIG. 6). Then, we determined the apparent dissociation constant at each scanning rate by performing a non-linear regression of the data sets using the Hill isotherm. […] Moreover, the shape of the voltammograms was distorted at fast scanning rates, preventing the accurate determination of ΔEP (FIG. 8). Thus, taking into consideration the results presented in FIGS. 7A and B, we determined that the best CV interrogation rate for tobramycin-detecting E-AB sensor was 5 V·s^−1.
E-AB interrogation via ΔEP achieves larger signal gains relative to interrogation based on CV peak heights. To illustrate this point, we measured dose-response curves at the optimal voltage scanning rate of 5 V·s^−1 and compared the response based on voltammogram peak currents, IP, at varying tobramycin concentrations relative to the proposed ΔEP-based method (FIG. 7C). To achieve a direct comparison between approaches, we calculated the relative change in signal at each concentration with respect to the signal measured in the absence of target (this is common practice in the field). By graphing IP vs concentration, we observed a ‘signal-on’ type of response, with IP increasing to a plateau of 20% relative signal change at saturation. Using ΔEP, in contrast, we observed a ‘signal-off’ type of response, with ΔEP decreasing by 80% relative signal change at saturation. […] On the other hand, ΔEP provides a signal-off response that is less desirable than the signal-on response achieved by monitoring IP. Typically, the use of signal-off sensing is sub-optimal for continuous monitoring in complex fluids, as matrix effects can induce signal decreases unrelated to fluctuations in target concentration that can be confounding during sensing.
ΔEP-based interrogation of E-AB sensors supports molecular measurements in complex media such as undiluted serum. Moreover, the approach can be used to interrogate E-AB sensors detecting different molecular targets. […] Furthermore, the relative change in ΔEP at 10 mM tobramycin was 30% less than the gain seen in phosphate-buffered saline. Both of these effects were previously reported for serum tobramycin E-AB measurements performed by chronoamperometry, confirming that ΔEP is not more prone to fouling than, for example, chronoamperometric current decay lifetimes. […]

Assay [4] deals with vancomycin-binding aptamer. The assay can be described thus: Cyclic voltammetry ΔEP interrogation of vancomycin-detecting E-AB sensors in undiluted serum. On the procedure:
as §2, §3, §1

Where [5] appears, read: CV 5 V·s^−1, phosphate-buffered saline, relative to no target.

The structures appear in SMILES notation. Where “and” joins values, the source holds several entries; their conditions need not be identical. Equal entries are not always repeated.

On to `CCN(CC)CCOC(=O)c1ccc(N)cc1` [procaine], for which the Kd was 1900 µM and ~2000 µM on procaine-binding aptamer [1]; about 500 µM on procaine-binding aptamer [2] (cyclic voltammetry, read-out: KD from calibration curve (ΔEP)). In addition, the “relative decrease in ΔEP at saturating concentration” value with procaine-binding aptamer [2] (saturating procaine) was about 80%.

Turning to `NC[C@H]1O[C@H](O[C@H]2[C@H](O)[C@@H](O[C@H]3O[C@H](CO)[C@@H](O)[C@H](N)[C@H]3O)[C@H](N)C[C@@H]2N)[C@H](N)C[C@@H]1O` [tobramycin], the “relative change in ΔEP in undiluted serum, less than the gain seen in phosphate-buffered saline” value in assay [3] (10 mM tobramycin, undiluted serum vs phosphate-buffered saline) is reported as 30%. Moreover, in assay [3] (setting [5]), the “IP (peak current) increase, relative signal change at saturation (signal-on)” value was 20% and the “ΔEP decrease, relative signal change at saturation (signal-off)” value amounted to 80%. Also, in assay [3] (CV at 5 V·s^−1, phosphate-buffered saline, Hill fit, 5 electrodes, read-out: KD (dissociation constant from ΔEP dose-response curve)), the Kd was determined as 80 ± 7 µM. Also, the “ΔEP (peak-to-peak separation) after target addition” value in assay [3] (saturating tobramycin 10 mM, without target ~100 mV, scanning rates ~1-10 V·s^−1) is reported as about 30 mV. In addition, in assay [3] (undiluted serum, ΔEP-based interrogation), the “affinity in undiluted serum relative to phosphate-buffered saline” value was “significant decrease in affinity”.

On to `CN[C@H](CC(C)C)C(=O)N[C@H]1C(=O)N[C@@H](CC(N)=O)C(=O)N[C@H]2C(=O)N[C@H]3C(=O)N[C@H](C(=O)N[C@H](C(=O)O)c4cc(O)cc(O)c4-c4cc3ccc4O)[C@H](O)c3ccc(c(Cl)c3)Oc3cc2cc(c3O[C@@H]2O[C@H](CO)[C@@H](O)[C@H](O)[C@H]2O[C@H]2C[C@](C)(N)[C@H](O)[C@H](C)O2)Oc2ccc(cc2Cl)[C@H]1O` [vancomycin], for which, in assay [4] (read-out: KD from serum calibration curve (ΔEP)), the Kd was about 60 µM. Further, in assay [4] (saturating vancomycin), the “total relative change in ΔEP at saturating concentration” value is on record as about 50%.

For the origin of these results see patent publication US20240125729A1, “METHODS AND RELATED ASPECTS OF DETECTING TARGET MOLECULES USING CYCLIC VOLTAMMETRY” (THE JOHNS HOPKINS UNIVERSITY, priority 2021, published 2024).
